Earlier results in patent US20230212091A1, “Compositions for Increasing Nitrogen Sources Life Span in Plant Growth Mediums and Methods of Making” (Soilgenic Technologies, LLC, priority 2017, published 2023).

Details: at 20° C.

N#CN=C(N)N [DCD, dicyandiamide]
solubility in water: approximately 32 grams/liter
